Results: US12552766B2, “Pesticidally active azole amide compounds” (SYNGENTA CROP PROTECTION AG, priority 2019, dated 2026)

Experiments:
Type in all cases: in vivo
[1] = test system: Diabrotica Balteata (Corn Root Worm); experiment: Example B1: Diabrotica balteata, spray on maize sprouts; conditions: 96 h, application rate of 200 ppm, L2 larvae, 4 days after infestation, read-out: control in at least one of the two categories (mortality or growth inhibition)
Experimental: Maize sprouts placed onto an agar layer in 24-well microtiter plates were treated with aqueous test solutions prepared from 10′000 ppm DMSO stock solutions by spraying. After drying, the plates were infested with L2 larvae (6 to 10 per well). The samples were assessed for mortality and growth inhibition in comparison to untreated samples 4 days after infestation.

[2] = test system: Plutella xylostella (Diamondback Moth); experiment: Example B13: Plutella xylostella, artificial diet, 96-well; conditions: 216 h, application rate of 500 ppm, eggs/L1 larvae, 9 days after infestation
Experimental: 96-well microtiter plates containing artificial diet were treated with aqueous test solutions, prepared from 10′000 ppm DMSO stock solutions, by a liquid handling robot. After drying, eggs (˜30 per well) were infested onto a netted lid which was suspended above the diet. The eggs hatch and L1 larvae move down to the diet. The samples were assessed for mortality 9 days after infestation.

[3] = test system: Plutella xylostella (Diamond Back Moth); experiment: Example B5: Plutella xylostella, artificial diet, 24-well; conditions: 192 h, application rate of 200 ppm, eggs, 8 days after infestation, read-out: control in at least one of the two categories (mortality or growth inhibition)
Experimental: 24-well microtiter plates with artificial diet were treated with aqueous test solutions prepared from 10′000 ppm DMSO stock solutions by pipetting. After drying, Plutella eggs were pipetted through a plastic stencil onto a gel blotting paper and the plate was closed with it. The samples were assessed for mortality and growth inhibition in comparison to untreated samples 8 days after infestation.

[4] = test system: Spodoptera littoralis (Egyptian Cotton Leaf Worm); experiment: Example B9: Spodoptera littoralis, spray on cotton leaf discs; conditions: foliar, 72 h, application rate of 200 ppm, L1 larvae, 3 days after infestation, read-out: control in at least one of the three categories (mortality, anti-feedant effect, or growth inhibition)
Experimental: Cotton leaf discs were placed onto agar in 24-well microtiter plates and sprayed with aqueous test solutions prepared from 10′000 ppm DMSO stock solutions. After drying the leaf discs were infested with five L1 larvae. The samples were assessed for mortality, anti-feeding effect, and growth inhibition in comparison to untreated samples 3 days after infestation. Control of Spodoptera littoralis by a test sample is given when at least one of the categories mortality, anti-feedant effect, and growth inhibition is higher than the untreated sample.

[5] = test system: Chilo suppressalis (Striped Rice Stemborer); experiment: Example B4: Chilo suppressalis, artificial diet; conditions: 144 h, application rate of 200 ppm, L2 larvae, 6 days after infestation, read-out: control in at least one of the three categories (mortality, anti-feedant effect, or growth inhibition)
Experimental: 24-well microtiter plates with artificial diet were treated with aqueous test solutions prepared from 10′000 ppm DMSO stock solutions by pipetting. After drying, the plates were infested with L2 larvae (6-8 per well). The samples were assessed for mortality, anti-feeding effect, and growth inhibition in comparison to untreated samples 6 days after infestation. Control of Chilo suppressalis by a test sample is given when at least one of the categories mortality, anti-feedant effect, and growth inhibition is higher than the untreated sample.

[6] = test system: Euschistus heros (Neotropical Brown Stink Bug); experiment: Example B2: Euschistus heros, spray on soybean leaves; conditions: 120 h, application rate of 200 ppm, N2 nymphs, 5 days after infestation, read-out: control in at least one of the two categories (mortality or growth inhibition)
Experimental: Soybean leaves on agar in 24-well microtiter plates were sprayed with aqueous test solutions prepared from 10′000 ppm DMSO stock solutions. After drying the leaves were infested with N2 nymphs. The samples were assessed for mortality and growth inhibition in comparison to untreated samples 5 days after infestation.

CC(NC(=O)c1cc(OCC(F)(F)F)cc(C(F)(F)F)c1)c1nc(Br)nn1-c1ncc(OCC(F)F)cn1 (stereo not drawn) [Compound P19, N-[1-[5-bromo-2-[5-(2,2-difluoroethoxy)pyrimidin-2-yl]-1,2,4-triazol-3-yl]ethyl]-3-(2,2,2-trifluoroethoxy)-5-(trifluoromethyl) benzamide]
≥ 80%: percent control (mortality or growth inhibition) at 200 ppm [1] | mortality at 500 ppm [2] | percent control (mortality or growth inhibition) at 200 ppm [3] | percent control (mortality, anti-feedant effect or growth inhibition) at 200 ppm [4] | percent control (mortality, anti-feedant effect or growth inhibition) at 200 ppm [5]

CC(NC(=O)c1cc(OCC(F)(F)F)cc(C(F)(F)F)c1)c1nc(Br)nn1-c1ccc(C#N)cn1 (stereo not drawn) [Compound P21, N-[1-[5-bromo-2-(5-cyano-2-pyridyl)-1,2,4-triazol-3-yl]ethyl]-3-(2,2,2-trifluoroethoxy)-5-(trifluoromethyl) benzamide]
≥ 80%: percent control (mortality or growth inhibition) at 200 ppm [1] | mortality at 500 ppm [2] | percent control (mortality or growth inhibition) at 200 ppm [3] | percent control (mortality, anti-feedant effect or growth inhibition) at 200 ppm [4] | percent control (mortality, anti-feedant effect or growth inhibition) at 200 ppm [5]

CC(NC(=O)c1cc(Cl)cc(C(F)(F)F)c1)c1nc(Br)nn1-c1ccc(OC(F)F)cn1 (stereo not drawn) [Compound P26, N-[1-[5-bromo-2-[5-(difluoromethoxy)-2-pyridyl]-1,2,4-triazol-3-yl]ethyl]-3-chloro-5-(trifluoromethyl) benzamide]
≥ 80%: percent control (mortality or growth inhibition) at 200 ppm [1] | percent control (mortality or growth inhibition) at 200 ppm [6] | percent control (mortality or growth inhibition) at 200 ppm [3] | percent control (mortality, anti-feedant effect or growth inhibition) at 200 ppm [4] | percent control (mortality, anti-feedant effect or growth inhibition) at 200 ppm [5]

CC(NC(=O)c1cc(Cl)cc(C(F)(F)F)c1)c1nc(Br)nn1-c1ncc(OCC(F)F)cn1 (stereo not drawn) [Compound P27, N-[1-[5-bromo-2-[5-(2,2-difluoroethoxy)pyrimidin-2-yl]-1,2,4-triazol-3-yl]ethyl]-3-chloro-5-(trifluoromethyl) benzamide]
≥ 80%: percent control (mortality or growth inhibition) at 200 ppm [1] | mortality at 500 ppm [2] | percent control (mortality or growth inhibition) at 200 ppm [3] | percent control (mortality, anti-feedant effect or growth inhibition) at 200 ppm [4] | percent control (mortality, anti-feedant effect or growth inhibition) at 200 ppm [5]

CC(NC(=O)c1cc(C(F)F)cc(C(F)(F)F)c1)c1nc(Br)nn1-c1ncc(OC(F)F)cn1 (stereo not drawn) [Compound P28, N-[1-[5-bromo-2-[5-(difluoromethoxy)pyrimidin-2-yl]-1,2,4-triazol-3-yl]ethyl]-3-(difluoromethyl)-5-(trifluoromethyl) benzamide]
≥ 80%: percent control (mortality or growth inhibition) at 200 ppm [1] | mortality at 500 ppm [2] | percent control (mortality or growth inhibition) at 200 ppm [3] | percent control (mortality, anti-feedant effect or growth inhibition) at 200 ppm [4] | percent control (mortality, anti-feedant effect or growth inhibition) at 200 ppm [5]

CC(NC(=O)c1cc(Cl)cc(C(F)(F)F)c1)c1nc(Br)nn1-c1ncc(OC(F)F)cn1 (stereo not drawn) [Compound P29, N-[1-[5-bromo-2-[5-(difluoromethoxy)pyrimidin-2-yl]-1,2,4-triazol-3-yl]ethyl]-3-chloro-5-(trifluoromethyl) benzamide]
≥ 80%: percent control (mortality or growth inhibition) at 200 ppm [1] | mortality at 500 ppm [2] | percent control (mortality or growth inhibition) at 200 ppm [3] | percent control (mortality, anti-feedant effect or growth inhibition) at 200 ppm [4] | percent control (mortality, anti-feedant effect or growth inhibition) at 200 ppm [5]

CC(NC(=O)c1cc(Br)cc(C(F)(F)F)c1)c1nc(Br)nn1-c1ccc(C#N)cn1 (stereo not drawn) [Compound P30, 3-bromo-N-[1-[5-bromo-2-(5-cyano-2-pyridyl)-1,2,4-triazol-3-yl]ethyl]-5-(trifluoromethyl) benzamide]
≥ 80%: percent control (mortality or growth inhibition) at 200 ppm [1] | mortality at 500 ppm [2] | percent control (mortality or growth inhibition) at 200 ppm [3] | percent control (mortality, anti-feedant effect or growth inhibition) at 200 ppm [4] | percent control (mortality, anti-feedant effect or growth inhibition) at 200 ppm [5]

CC(NC(=O)c1cc(Cl)cc(C(F)(F)F)c1)c1nc(Br)nn1-c1ccc(C#N)cn1 (stereo not drawn) [Compound P31, N-[1-[5-bromo-2-(5-cyano-2-pyridyl)-1,2,4-triazol-3-yl]ethyl]-3-chloro-5-(trifluoromethyl) benzamide]
≥ 80%: percent control (mortality or growth inhibition) at 200 ppm [1] | mortality at 500 ppm [2] | percent control (mortality or growth inhibition) at 200 ppm [3] | percent control (mortality, anti-feedant effect or growth inhibition) at 200 ppm [4] | percent control (mortality, anti-feedant effect or growth inhibition) at 200 ppm [5]

CC(NC(=O)c1cc(Br)cc(C(F)(F)F)c1)c1nc(Br)nn1-c1ncc(OCC(F)(F)F)cn1 (stereo not drawn) [Compound P41, 3-bromo-N-[1-[5-bromo-2-[5-(2,2,2-trifluoroethoxy)pyrimidin-2-yl]-1,2,4-triazol-3-yl]ethyl]-5-(trifluoromethyl) benzamide]
≥ 80%: percent control (mortality or growth inhibition) at 200 ppm [1] | mortality at 500 ppm [2] | percent control (mortality or growth inhibition) at 200 ppm [3] | percent control (mortality, anti-feedant effect or growth inhibition) at 200 ppm [4] | percent control (mortality, anti-feedant effect or growth inhibition) at 200 ppm [5]

CC(NC(=O)c1cc(C(F)F)cc(C(F)(F)F)c1)c1nc(Br)nn1-c1ncc(OCC(F)(F)F)cn1 (stereo not drawn) [Compound P42, N-[1-[5-bromo-2-[5-(2,2,2-trifluoroethoxy)pyrimidin-2-yl]-1,2,4-triazol-3-yl]ethyl]-3-(difluoromethyl)-5-(trifluoromethyl) benzamide]
≥ 80%: percent control (mortality or growth inhibition) at 200 ppm [1] | mortality at 500 ppm [2] | percent control (mortality or growth inhibition) at 200 ppm [3] | percent control (mortality, anti-feedant effect or growth inhibition) at 200 ppm [4] | percent control (mortality, anti-feedant effect or growth inhibition) at 200 ppm [5]

CC(NC(=O)c1cc(C(F)(F)F)cc(C(F)(F)F)c1)c1nc(Br)nn1-c1ncc(OCC(F)(F)F)cn1 (stereo not drawn) [Compound P44, N-[1-[5-bromo-2-[5-(2,2,2-trifluoroethoxy)pyrimidin-2-yl]-1,2,4-triazol-3-yl]ethyl]-3,5-bis(trifluoromethyl) benzamide]
≥ 80%: percent control (mortality or growth inhibition) at 200 ppm [1] | mortality at 500 ppm [2] | percent control (mortality or growth inhibition) at 200 ppm [3] | percent control (mortality, anti-feedant effect or growth inhibition) at 200 ppm [4] | percent control (mortality, anti-feedant effect or growth inhibition) at 200 ppm [5]

CC(NC(=O)c1cc(OC(F)F)cc(C(F)(F)F)c1)c1nc(Br)nn1-c1ncc(OCC(F)(F)F)cn1 (stereo not drawn) [Compound P45]
≥ 80%: percent control (mortality or growth inhibition) at 200 ppm [1] | mortality at 500 ppm [2] | percent control (mortality or growth inhibition) at 200 ppm [3] | percent control (mortality, anti-feedant effect or growth inhibition) at 200 ppm [4] | percent control (mortality, anti-feedant effect or growth inhibition) at 200 ppm [5]

CC(NC(=O)c1cc(OCC(F)(F)F)cc(C(F)(F)F)c1)c1nc(Br)nn1-c1ncc(OCC(F)(F)F)cn1 (stereo not drawn) [Compound P46, N-[1-[5-bromo-2-[5-(2,2,2-trifluoroethoxy)pyrimidin-2-yl]-1,2,4-triazol-3-yl]ethyl]-3-(2,2,2-trifluoroethoxy)-5-(trifluoromethyl) benzamide]
≥ 80%: percent control (mortality or growth inhibition) at 200 ppm [1] | mortality at 500 ppm [2] | percent control (mortality or growth inhibition) at 200 ppm [3] | percent control (mortality, anti-feedant effect or growth inhibition) at 200 ppm [4] | percent control (mortality, anti-feedant effect or growth inhibition) at 200 ppm [5]

CC(NC(=O)c1cc(Cl)cc(C(F)(F)F)c1)c1nc(Br)nn1-c1ccc(OCC(F)F)cn1 (stereo not drawn) [Compound P49, N-[1-[5-bromo-2-[5-(2,2-difluoroethoxy)-2-pyridyl]-1,2,4-triazol-3-yl]ethyl]-3-chloro-5-(trifluoromethyl) benzamide]
≥ 80%: percent control (mortality or growth inhibition) at 200 ppm [1] | mortality at 500 ppm [2] | percent control (mortality or growth inhibition) at 200 ppm [3] | percent control (mortality, anti-feedant effect or growth inhibition) at 200 ppm [4] | percent control (mortality, anti-feedant effect or growth inhibition) at 200 ppm [5]

CC(=O)c1nc(C(C)NC(=O)c2cc(C(F)(F)F)cc(C(F)(F)F)c2)n(-c2ccc(C#N)cn2)n1 (stereo not drawn) [Compound P57, N-[1-[5-acetyl-2-(5-cyano-2-pyridyl)-1,2,4-triazol-3-yl]ethyl]-3,5-bis(trifluoromethyl) benzamide]
≥ 80%: percent control (mortality or growth inhibition) at 200 ppm [1] | mortality at 500 ppm [2] | percent control (mortality or growth inhibition) at 200 ppm [3] | percent control (mortality, anti-feedant effect or growth inhibition) at 200 ppm [4] | percent control (mortality, anti-feedant effect or growth inhibition) at 200 ppm [5]
